Measured values taken from US20080031884A1, “COMPOSITIONS AND METHODS FOR TREATING, REDUCING, AMELIORATING, OR ALLEVIATING POSTERIOR-SEGMENT OPHTHALMIC DISEASES” (priority 2006, published 2008).
Values joined by “and” are separate entries in the source; they are usually repeats but may differ in a detail not shown here. Equal entries are not always repeated. “Also recorded” adds a separate entry of the source.

What was measured:
[1] = tested on: leukocytes (PMN) in aqueous humor; test: Leukocytes (PMN) measurement in aqueous humor, rabbit paracentesis model; format: in vivo; details: aqueous humor at the second paracentesis; for PMN numbers, Mean (number/μl): group mean; for PMN (number/μl): raw data per sample
Description: Each rabbit was placed in a restraint device and tagged with the alphanumeric code. The formulations were instilled (50 μl) into the conjunctival sac of both eyes 180, 120, 90 and 30 min before the first paracentesis; then 15, 30, 90 min after the first paracentesis. To perform the first paracentesis the animals were anaesthetized by intraveneous injection of 5 mg/kg Zoletil® (Virbac; 2.5 mg/kg tiletamine HCl and 2.5 mg/kg zolazepam HCl) and one drop of local anesthetic (Novesina®, Novartis) was administered to the eye. Anterior chamber paracentesis was performed with a 26 G needle attached to a tuberculin syringe; the needle was introduced into the anterior chamber through the cornea, taking care not to damage the tissues. Two hours after the first paracentesis, the animals were sacrificed with 0.4 ml Tanax® (Intervet International B.V.) and the second paracentesis was performed. About 100 μl of aqueous humor were removed at the second paracentesis. Aqueous humor was immediately split in four aliquots and stored at −80° C. until analysis. Then both eyes were enucleated and the iris-ciliary body was carefully excised, placed in polypropylene tubes, and stored at −80° C. until analysis.
For the determination of the number of leukocytes we used a haemocytometer (Improved Neubauer Chamber; Brigth-line, Hausser Scientific) and a Polyvar 2 microscope (Reichert-Jung).

[2] = tested on: rabbit eye (anterior chamber paracentesis); test: Rabbit paracentesis model, overall anti-inflammatory activity; format: in vivo; details: 0.1%, 0.5% and 1% topical formulations; preliminary conclusions; listed as BOL-303242-X
From the text: Inflammatory processes are multidimensional in origin, and are characterized by complex cellular and molecular events involving numerous components all of which have not been identified. Prostaglandins are among these mediators and play an important role in certain forms of ocular inflammation. Paracentesis of the anterior chamber in the rabbit eye induces inflammatory reaction due to the disruption of the blood-aqueous barrier (“BAB”), which is mediated, at least in part, by prostaglandin E2 [References 1-3 below]. Intraocular or topical administration of PGE2 disrupts the BAB. [Reference 4, below] The treatment schedule adopted in this study was similar to the clinical NSAIDs (Ocufen) treatment schedule used by surgeons for patients before cataract surgery.
Each rabbit was placed in a restraint device and tagged with the alphanumeric code. The formulations were instilled (50 μl) into the conjunctival sac of both eyes 180, 120, 90 and 30 min before the first paracentesis; then 15, 30, 90 min after the first paracentesis. To perform the first paracentesis the animals were anaesthetized by intraveneous injection of 5 mg/kg Zoletil® (Virbac; 2.5 mg/kg tiletamine HCl and 2.5 mg/kg zolazepam HCl) and one drop of local anesthetic (Novesina®, Novartis) was administered to the eye. […]

[3] = Side effects of corticosteroids (very preliminary data, not shown)

In the case of `C[C@@H]1C[C@H]2[C@@H]3CCC4=CC(=O)C=C[C@]4(C)[C@@]3(F)[C@@H](O)C[C@]2(C)[C@@]1(O)C(=O)CO` [Dex, dexamethasone], the “PMN numbers, Mean (number/μl)” value ([1]; 0.1% topical formulation) is reported as 30.000 number/μl.

In the case of `CC(C(=O)O)c1ccc(-c2ccccc2)c(F)c1` (stereo not drawn) [F, flurbiprofen], the “PMN numbers, Mean (number/μl)” value ([1]; 0.03% topical formulation) is reported as 30.000 number/μl.

For `Cc1ccc2c(NCC(O)(CC(C)(C)c3cc(F)cc4c3OCC4)C(F)(F)F)cccc2n1` (stereo not drawn) [BOL], the “Anti-inflammatory activity in the rabbit paracentesis model (conclusion)” value [2] was “active; also recorded: as effective an anti-inflammatory drug as some of the commonly accepted prior-art steroids or NSAID”, the “PMN (number/μl)” value ([1]; 1% topical formulation) was 30 number/μl and 20 number/μl and 40 number/μl and the “Side effects of corticosteroids” value [3] was “does not have some of the side effects of corticosteroids”.

For `CCOC(=O)O[C@]1(C(=O)OCCl)CC[C@H]2[C@@H]3CCC4=CC(=O)C=C[C@]4(C)[C@H]3[C@@H](O)C[C@@]21C` [LE, loteprednol etabonate], the “PMN (number/μl)” value ([1]; 0.5% topical formulation) was 40 number/μl and 20 number/μl and 30 number/μl.
